ChEMBL document CHEMBL5291721, “A preclinical secondary pharmacology resource illuminates target-adverse drug reaction associations of marketed drugs” (Nat Commun, 2023)

Assays:
[1] = target: Beta-2 adrenergic receptor (Homo sapiens, UniProt P07550)
Estrogen receptor = target: T1, Estrogen receptor (Homo sapiens, UniProt P03372)
T1 sequence (P03372 whole entry): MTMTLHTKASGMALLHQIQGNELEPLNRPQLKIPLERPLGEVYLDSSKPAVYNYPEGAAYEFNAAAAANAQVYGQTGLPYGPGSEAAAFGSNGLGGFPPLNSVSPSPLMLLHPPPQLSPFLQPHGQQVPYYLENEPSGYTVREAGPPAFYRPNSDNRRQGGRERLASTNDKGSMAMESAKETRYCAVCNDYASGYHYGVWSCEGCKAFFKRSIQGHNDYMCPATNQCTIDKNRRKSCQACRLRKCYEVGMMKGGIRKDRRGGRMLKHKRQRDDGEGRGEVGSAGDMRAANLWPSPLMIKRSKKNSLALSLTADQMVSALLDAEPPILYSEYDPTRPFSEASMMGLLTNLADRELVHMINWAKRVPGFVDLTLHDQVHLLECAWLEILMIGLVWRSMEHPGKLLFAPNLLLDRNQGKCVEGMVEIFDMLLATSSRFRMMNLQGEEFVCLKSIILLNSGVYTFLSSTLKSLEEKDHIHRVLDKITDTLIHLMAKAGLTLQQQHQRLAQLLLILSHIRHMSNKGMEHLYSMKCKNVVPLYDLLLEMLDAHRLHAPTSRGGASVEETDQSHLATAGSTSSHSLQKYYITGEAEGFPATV

[2] = target: T2, Corticotropin-releasing factor receptor 2 (Homo sapiens, UniProt Q13324)
T2 sequence (Q13324 whole entry): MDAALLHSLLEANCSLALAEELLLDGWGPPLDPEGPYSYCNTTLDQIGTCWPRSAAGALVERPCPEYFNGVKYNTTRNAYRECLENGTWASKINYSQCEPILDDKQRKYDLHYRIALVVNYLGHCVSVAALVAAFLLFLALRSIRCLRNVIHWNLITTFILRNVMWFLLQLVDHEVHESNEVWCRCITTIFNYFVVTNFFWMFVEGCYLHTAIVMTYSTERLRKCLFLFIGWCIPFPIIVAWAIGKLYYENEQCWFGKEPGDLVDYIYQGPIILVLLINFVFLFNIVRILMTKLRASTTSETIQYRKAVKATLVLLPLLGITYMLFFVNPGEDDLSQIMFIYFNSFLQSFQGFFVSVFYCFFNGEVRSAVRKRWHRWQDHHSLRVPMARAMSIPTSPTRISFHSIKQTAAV

[3] = target: T3, Gastric inhibitory polypeptide receptor (Homo sapiens, UniProt P48546)
T3 sequence (P48546 whole entry): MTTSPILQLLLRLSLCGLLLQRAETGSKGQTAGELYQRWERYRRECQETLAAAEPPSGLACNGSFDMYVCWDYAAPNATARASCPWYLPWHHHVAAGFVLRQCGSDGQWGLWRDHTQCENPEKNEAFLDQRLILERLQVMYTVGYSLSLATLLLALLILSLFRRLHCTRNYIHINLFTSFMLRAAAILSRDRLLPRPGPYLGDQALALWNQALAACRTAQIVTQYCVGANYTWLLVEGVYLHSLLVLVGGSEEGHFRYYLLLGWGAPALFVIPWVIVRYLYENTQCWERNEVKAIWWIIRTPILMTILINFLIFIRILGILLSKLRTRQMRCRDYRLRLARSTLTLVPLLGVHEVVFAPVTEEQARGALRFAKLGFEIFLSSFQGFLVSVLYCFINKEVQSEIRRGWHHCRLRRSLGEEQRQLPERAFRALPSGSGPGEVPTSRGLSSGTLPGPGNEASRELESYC

[4] = target: T4, Neuropeptide Y receptor type 2 (Homo sapiens, UniProt P49146)
T4 sequence (P49146 whole entry): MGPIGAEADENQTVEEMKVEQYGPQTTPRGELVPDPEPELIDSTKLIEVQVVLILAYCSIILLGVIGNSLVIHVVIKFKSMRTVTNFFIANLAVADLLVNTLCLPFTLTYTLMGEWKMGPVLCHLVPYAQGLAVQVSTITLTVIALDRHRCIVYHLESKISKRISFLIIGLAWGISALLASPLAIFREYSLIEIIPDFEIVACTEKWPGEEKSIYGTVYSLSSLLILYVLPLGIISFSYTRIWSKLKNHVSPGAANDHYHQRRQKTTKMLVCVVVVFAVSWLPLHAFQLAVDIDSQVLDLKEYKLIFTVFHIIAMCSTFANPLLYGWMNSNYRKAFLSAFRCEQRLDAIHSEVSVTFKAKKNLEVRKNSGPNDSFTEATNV

Glucagon receptor = Glucagon receptor (Homo sapiens, UniProt P47871)
[5] = target: Neurotensin receptor type 1 (Homo sapiens, UniProt P30989)
[6] = target: Muscarinic acetylcholine receptor M3 (Homo sapiens, UniProt P20309)
[7] = target: 5-hydroxytryptamine receptor 2A (Homo sapiens, UniProt P28223); format: functional, cell-based
Glucocorticoid receptor = target: T5, Glucocorticoid receptor (Homo sapiens, UniProt P04150); format: functional
T5 sequence (P04150 whole entry): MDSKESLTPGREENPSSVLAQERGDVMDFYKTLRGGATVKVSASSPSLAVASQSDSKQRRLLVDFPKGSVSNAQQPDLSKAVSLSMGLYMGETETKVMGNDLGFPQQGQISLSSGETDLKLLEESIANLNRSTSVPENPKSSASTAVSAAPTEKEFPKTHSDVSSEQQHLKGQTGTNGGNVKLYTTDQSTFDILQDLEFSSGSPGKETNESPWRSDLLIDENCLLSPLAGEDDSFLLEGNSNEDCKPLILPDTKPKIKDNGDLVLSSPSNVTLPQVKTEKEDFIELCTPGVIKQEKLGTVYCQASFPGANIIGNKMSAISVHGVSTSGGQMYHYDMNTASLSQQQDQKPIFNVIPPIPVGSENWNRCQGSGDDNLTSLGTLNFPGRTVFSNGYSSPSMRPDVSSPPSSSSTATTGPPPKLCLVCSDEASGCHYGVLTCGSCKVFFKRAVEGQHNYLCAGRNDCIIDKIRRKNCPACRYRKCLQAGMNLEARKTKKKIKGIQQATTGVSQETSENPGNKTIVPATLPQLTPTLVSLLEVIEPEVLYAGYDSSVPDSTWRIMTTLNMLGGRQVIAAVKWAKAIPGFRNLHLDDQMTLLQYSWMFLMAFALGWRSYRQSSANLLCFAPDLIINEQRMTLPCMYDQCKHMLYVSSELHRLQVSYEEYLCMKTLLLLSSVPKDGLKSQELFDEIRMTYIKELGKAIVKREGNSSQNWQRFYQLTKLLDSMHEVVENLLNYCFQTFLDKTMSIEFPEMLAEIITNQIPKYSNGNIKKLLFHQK
Note: assay procedure not described here.

Sequence of 5-hydroxytryptamine receptor 2A (P28223 whole entry): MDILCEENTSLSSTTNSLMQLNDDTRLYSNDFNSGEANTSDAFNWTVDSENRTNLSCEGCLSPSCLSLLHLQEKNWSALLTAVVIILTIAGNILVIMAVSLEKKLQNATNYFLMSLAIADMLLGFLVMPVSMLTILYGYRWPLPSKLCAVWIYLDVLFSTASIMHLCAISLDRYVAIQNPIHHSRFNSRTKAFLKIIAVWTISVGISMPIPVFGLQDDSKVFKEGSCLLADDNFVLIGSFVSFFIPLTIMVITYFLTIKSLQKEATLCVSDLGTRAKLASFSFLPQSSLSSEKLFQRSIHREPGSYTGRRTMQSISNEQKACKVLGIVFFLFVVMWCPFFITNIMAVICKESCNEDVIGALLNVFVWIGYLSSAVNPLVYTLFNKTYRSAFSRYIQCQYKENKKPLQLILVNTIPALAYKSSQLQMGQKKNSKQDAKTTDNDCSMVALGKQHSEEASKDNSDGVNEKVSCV
Sequence of Beta-2 adrenergic receptor (P07550 whole entry): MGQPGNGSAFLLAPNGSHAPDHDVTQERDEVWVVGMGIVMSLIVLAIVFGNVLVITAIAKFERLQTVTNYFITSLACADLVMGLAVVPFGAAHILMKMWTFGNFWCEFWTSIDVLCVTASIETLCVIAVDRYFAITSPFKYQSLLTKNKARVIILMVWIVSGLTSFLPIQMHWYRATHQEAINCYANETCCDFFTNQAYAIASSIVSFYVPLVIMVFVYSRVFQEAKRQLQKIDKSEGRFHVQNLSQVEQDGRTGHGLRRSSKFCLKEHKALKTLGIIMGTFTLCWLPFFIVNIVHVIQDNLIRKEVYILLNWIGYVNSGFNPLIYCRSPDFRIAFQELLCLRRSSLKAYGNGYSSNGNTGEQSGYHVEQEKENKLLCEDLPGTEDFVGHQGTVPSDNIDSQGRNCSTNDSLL
Sequence of Neurotensin receptor type 1 (P30989 whole entry): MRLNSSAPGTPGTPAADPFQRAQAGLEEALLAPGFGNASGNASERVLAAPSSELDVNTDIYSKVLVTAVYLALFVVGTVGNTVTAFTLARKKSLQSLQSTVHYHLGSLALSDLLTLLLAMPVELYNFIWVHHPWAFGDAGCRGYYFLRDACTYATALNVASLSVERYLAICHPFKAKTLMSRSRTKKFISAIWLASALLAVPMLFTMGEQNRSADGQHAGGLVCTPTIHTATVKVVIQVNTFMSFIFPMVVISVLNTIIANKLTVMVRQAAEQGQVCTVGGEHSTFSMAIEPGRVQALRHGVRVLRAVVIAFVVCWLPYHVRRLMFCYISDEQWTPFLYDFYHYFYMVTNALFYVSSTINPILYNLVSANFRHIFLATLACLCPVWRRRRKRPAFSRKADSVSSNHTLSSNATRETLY
Sequence of Muscarinic acetylcholine receptor M3 (P20309 whole entry): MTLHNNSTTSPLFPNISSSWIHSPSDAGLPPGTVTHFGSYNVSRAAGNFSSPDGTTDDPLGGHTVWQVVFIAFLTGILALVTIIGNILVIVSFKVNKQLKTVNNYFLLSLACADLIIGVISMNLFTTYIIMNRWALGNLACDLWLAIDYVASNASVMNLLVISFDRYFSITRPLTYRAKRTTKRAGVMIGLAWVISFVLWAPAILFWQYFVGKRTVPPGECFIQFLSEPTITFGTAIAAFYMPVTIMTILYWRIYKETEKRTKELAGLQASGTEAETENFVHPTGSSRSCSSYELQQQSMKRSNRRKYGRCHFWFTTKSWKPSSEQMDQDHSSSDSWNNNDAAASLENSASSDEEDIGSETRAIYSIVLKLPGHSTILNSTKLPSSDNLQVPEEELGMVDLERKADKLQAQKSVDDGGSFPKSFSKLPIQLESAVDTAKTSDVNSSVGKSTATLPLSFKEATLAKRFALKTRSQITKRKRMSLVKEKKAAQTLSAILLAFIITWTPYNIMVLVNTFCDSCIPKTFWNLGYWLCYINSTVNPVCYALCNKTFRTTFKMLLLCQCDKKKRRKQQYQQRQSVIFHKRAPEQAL
Sequence of Glucagon receptor (P47871 whole entry): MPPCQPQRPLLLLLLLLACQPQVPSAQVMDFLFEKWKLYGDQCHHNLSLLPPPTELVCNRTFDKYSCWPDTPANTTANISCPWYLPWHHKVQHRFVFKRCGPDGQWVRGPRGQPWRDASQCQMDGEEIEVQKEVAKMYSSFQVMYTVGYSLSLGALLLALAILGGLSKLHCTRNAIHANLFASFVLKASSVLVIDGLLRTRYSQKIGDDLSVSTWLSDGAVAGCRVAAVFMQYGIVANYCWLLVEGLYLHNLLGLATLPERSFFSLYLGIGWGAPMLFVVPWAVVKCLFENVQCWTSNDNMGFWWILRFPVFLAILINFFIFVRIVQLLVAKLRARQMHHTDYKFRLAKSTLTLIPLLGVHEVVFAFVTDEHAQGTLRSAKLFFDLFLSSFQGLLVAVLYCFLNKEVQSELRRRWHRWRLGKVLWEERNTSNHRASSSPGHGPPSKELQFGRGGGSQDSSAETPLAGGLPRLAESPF

SMILES | AC50 [1] [µM] | AC50 (Estrogen receptor) [µM] | AC50 [2] [µM] | AC50 [3] [µM] | AC50 [4] [µM] | AC50 (Glucagon receptor) [µM] | AC50 [5] [µM] | AC50 [6] [µM] | AC50 [7] [µM] | AC50 (Glucocorticoid receptor) [µM]
CC(/C=C1\SC(=S)N(CC(=O)O)C1=O)=C\c1ccccc1 | > 30 | > 30 |  |  |  |  |  |  |  | 
CC1(C)S[C@@H]2[C@H](NC(=O)[C@H](N)c3ccc(O)cc3)C(=O)N2[C@H]1C(=O)O [AMOXICILLIN] | > 30 |  | > 30 | > 30 | > 30 | > 30 | > 30 |  |  | 
O=C1CN2Cc3c(ccc(Cl)c3Cl)N=C2N1 [ANAGRELIDE] | > 10 | > 30 |  |  |  |  |  | > 10 | > 30 | 
CNCC[C@@H](Oc1ccccc1C)c1ccccc1 [ATOMOXETINE] |  | > 30 |  |  |  |  |  | > 30 |  | 
CO/N=C(\C(=O)N[C@@H]1C(=O)N2C(C(=O)O)=C(COC(N)=O)CS[C@H]12)c1ccco1 [CEFUROXIME] |  |  |  |  |  |  |  | > 30 | > 30 | 
[H]/N=C(\N/C(=N/[H])NCCCCCCNC(=N)NC(=N)Nc1ccc(Cl)cc1)Nc1ccc(Cl)cc1 [CHLORHEXIDINE] | 6.5 | > 30 |  |  |  |  |  | 7.8 | > 10 | 
Clc1cccc(Cl)c1N=C1NCCN1 [CLONIDINE] |  |  | > 30 | > 30 | > 30 | > 30 | > 30 |  |  | 
CN1C[C@H](C(=O)N[C@]2(C)O[C@@]3(O)[C@@H]4CCCN4C(=O)[C@H](Cc4ccccc4)N3C2=O)C[C@@H]2c3cccc4[nH]cc(c34)C[C@H]21 [DIHYDROERGOTAMINE] |  | > 30 | > 30 | > 30 | > 30 | > 30 | > 30 |  |  | 
CNCC[C@H](Oc1cccc2ccccc12)c1cccs1 [DULOXETINE] |  |  |  |  |  |  |  | > 30 |  | 
C#Cc1cccc(Nc2ncnc3cc(OCCOC)c(OCCOC)cc23)c1 [ERLOTINIB] |  |  |  |  |  |  |  | > 30 |  | > 30
CC1(C)O[C@@H]2C[C@H]3[C@@H]4C[C@H](F)C5=CC(=O)C=C[C@]5(C)[C@H]4[C@@H](O)C[C@]3(C)[C@]2(C(=O)CO)O1 [FLUNISOLIDE] |  |  |  |  |  |  |  |  |  | 0.021
CCC(=O)O[C@@H](O[P@](=O)(CCCCc1ccccc1)CC(=O)N1C[C@H](C2CCCCC2)C[C@H]1C(=O)O)C(C)C [FOSINOPRIL] |  |  |  |  |  |  |  | > 30 | > 30 | 
Nc1nc(O)c2ncn(COC(CO)CO)c2n1 [GANCICLOVIR] | > 30 | > 30 |  |  |  |  |  |  |  | 
Cc1cnc(NC(=O)C2=C(O)c3ccccc3S(=O)(=O)N2C)s1 [MELOXICAM] | > 10 | > 30 | > 30 | > 30 | > 30 | > 30 | > 30 |  |  | 
CC(=O)/N=c1/sc(S(N)(=O)=O)nn1C [METHAZOLAMIDE] | > 10 | > 10 |  |  |  |  |  | > 30 | > 10 | 
CC[C@@H](CO)NC(=O)[C@@H]1C=C2c3cccc4[nH]cc(c34)C[C@H]2N(C)C1 [METHYLERGONOVINE] |  | > 30 |  |  |  |  |  |  |  | 
CC(=O)Oc1ccccc1C(=O)Nc1ncc([N+](=O)[O-])s1 [NITAZOXANIDE] | 7.8 | > 30 |  |  |  |  |  | 13 | > 30 | 
CNCCC=C1c2ccccc2CCc2ccccc21 [NORTRIPTYLINE] |  | > 30 |  |  |  |  |  |  |  | 
CN(C)c1cc(CNCC(C)(C)C)c(O)c2c1C[C@H]1C[C@H]3[C@H](N(C)C)C(O)=C(C(N)=O)C(=O)[C@@]3(O)C(O)=C1C2=O [OMADACYCLINE] |  | > 30 |  |  |  |  |  | > 30 | > 30 | 
COc1ccnc(C[S+]([O-])c2nc3ccc(OC(F)F)cc3[nH]2)c1OC (stereo not given) [PANTOPRAZOLE] | > 10 | > 30 | > 30 | > 30 | > 30 | > 30 | > 30 |  |  | 
CNC[C@H](O)c1cccc(O)c1 [PHENYLEPHRINE] |  |  | > 30 | > 30 | > 30 | > 30 | > 30 | > 30 | > 30 | 
NC(=O)c1ncn([C@@H]2O[C@H](CO)[C@@H](O)[C@H]2O)n1 [RIBAVIRIN] | > 10 |  |  |  |  |  |  |  |  | 
O=C(Nc1c(Cl)cncc1Cl)c1ccc(OC(F)F)c(OCC2CC2)c1 [ROFLUMILAST] | > 30 | > 30 |  |  |  |  |  | > 30 | > 30 | 
CC[C@H]1OC(=O)[C@H](C)[C@@H](O[C@H]2C[C@@](C)(OC)[C@@H](O)[C@H](C)O2)[C@H](C)[C@@H](O[C@@H]2O[C@H](C)C[C@H](N(C)C)[C@H]2O)[C@](C)(O)C[C@@H](C)/C(=N\OCOCCOC)[C@H](C)[C@@H](O)[C@]1(C)O [ROXITHROMYCIN] |  |  |  |  |  |  |  |  |  | > 30
CC(C)N(CCCCOCC(=O)NS(C)(=O)=O)c1cnc(-c2ccccc2)c(-c2ccccc2)n1 [SELEXIPAG] | > 30 | > 30 |  |  |  |  |  | > 30 | > 30 | 
CCCCNc1ccc(C(=O)OCCN(C)C)cc1 [TETRACAINE] | > 10 |  | > 30 | > 30 | > 30 | > 30 | 9.9 |  |  | 
Cn1c(=O)c2[nH]cnc2n(C)c1=O [THEOPHYLLINE] | > 10 |  | > 30 |  | > 30 | > 30 | > 30 |  |  | 
CN1CCN(CCCN2c3ccccc3Sc3ccc(S(=O)(=O)N(C)C)cc32)CC1 [THIOPROPERAZINE] |  |  |  |  |  |  |  | 18 | > 30 | 
CC1(C)O[C@@H]2[C@@H](CO[C@@]3(COS(N)(=O)=O)OC(C)(C)O[C@@H]23)O1 [TOPIRAMATE] | > 10 | > 30 | > 30 | > 30 | > 30 | > 30 | > 30 |  |  | 
Cc1cc(CC(=O)O)n(C)c1C(=O)c1ccc(Cl)cc1 [ZOMEPIRAC] |  |  |  |  |  |  |  | > 30 | > 30 | 
